PubChem BioAssay (NCI)
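Results reflect a 48-hour exposure of cells in 96-well plates to compound at five concentrations. At the GI50, growth is halved. TGI marks complete inhibition of growth.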

Tests used:
Assay in all cases: growth of human tumour cells (NCI), 48 h
CAKI-1 renal = system: CAKI-1 renal
EKVX NSCLC = system: EKVX NSCLC
HCC-2998 colon = system: HCC-2998 colon
HL-60(TB) leukemia = system: HL-60(TB) leukemia
NCI-H23 lung = system: NCI-H23 lung
OVCAR-8 ovarian = system: OVCAR-8 ovarian
RPMI-8226 leukemia = system: RPMI-8226 leukemia
RXF 393 renal = system: RXF 393 renal
SNB-19 CNS = system: SNB-19 CNS
MDA-MB-231 breast = system: MDA-MB-231 breast

Compound	TGI (CAKI-1 renal) [µM]	TGI (EKVX NSCLC) [µM]	TGI (HCC-2998 colon) [µM]	TGI (HL-60(TB) leukemia) [µM]	TGI (NCI-H23 lung) [µM]	TGI (OVCAR-8 ovarian) [µM]	TGI (RPMI-8226 leukemia) [µM]	TGI (RXF 393 renal) [µM]	TGI (SNB-19 CNS) [µM]	GI50 (CAKI-1 renal) [µM]	GI50 (EKVX NSCLC) [µM]	GI50 (HCC-2998 colon) [µM]	GI50 (MDA-MB-231 breast) [µM]	TGI (MDA-MB-231 breast) [µM]	GI50 (NCI-H23 lung) [µM]	GI50 (SNB-19 CNS) [µM]	GI50 (RPMI-8226 leukemia) [µM]	GI50 (RXF 393 renal) [µM]	GI50 (OVCAR-8 ovarian) [µM]	GI50 (HL-60(TB) leukemia) [µM]
O=C1N[C@@H](O)[C@@H]2ON=C(c3ccccc3)[C@H]12	> 100	> 100	> 100	> 100	> 100	> 100	> 100	> 100	> 100	–	–	–	–	–	–	–	–	–	–	–
O=C(Nc1ccc(S(=O)(=O)N[C@@H](C(=O)O)c2ccccc2)cc1)c1ccc(F)cc1	> 100	> 100	> 100	–	> 100	> 100	> 100	> 100	> 100	–	–	–	–	–	–	–	–	–	–	–
COc1cc(/C=C/C(=N\NC(=O)c2ccccc2)c2sc(Nc3ccc(Cl)c(Cl)c3)nc2C)ccc1O	> 100	> 100	91.8	40	77.3	> 100	–	> 100	> 100	–	–	–	–	–	–	–	–	–	–	–
CCOC(=O)Cc1nc(/C(C#N)=C/c2ccco2)[nH]c(=O)c1C#N	> 100	> 100	> 100	> 100	> 100	> 100	> 100	> 100	> 100	–	–	–	–	–	–	–	–	–	–	–
COc1ccc(C2C(N)=NCC2c2ccccn2)cc1 (stereo not given)	> 100	> 100	> 100	–	> 100	> 100	> 100	> 100	> 100	–	–	–	–	–	–	–	–	–	–	–
O=C1CCn2c([nH]c3cccc4cccc2c43)=N1	–	> 100	> 100	> 100	> 100	> 100	> 100	> 100	> 100	–	–	–	–	–	–	–	–	–	–	–
COc1ccc(/C=C/C(=O)c2sc(-n3nc(-c4ccccc4)cc3-c3ccccc3)nc2C)cc1OC	> 100	> 100	> 100	62.2	> 100	> 100	70	> 100	> 100	–	–	–	–	–	–	–	–	–	–	–
CC1CCCC(C(=O)/C(=C/c2cccc(Cl)c2)C(=O)C(=O)O)C1 (stereo not given)	> 100	> 100	25.4	47.9	> 100	40	38	–	> 100	–	–	–	–	–	–	–	–	–	–	–
NC1=NC(=O)C(CC(=O)Nc2ccc([N+](=O)[O-])cc2[N+](=O)[O-])S1 (stereo not given)	–	> 100	> 100	> 100	> 100	> 100	> 100	> 100	> 100	–	–	–	–	–	–	–	–	–	–	–
CC(O)CN1C(=O)NC(Cc2ccccc2)C1=O (stereo not given)	> 100	> 100	> 100	> 100	> 100	> 100	–	> 100	> 100	–	–	–	–	–	–	–	–	–	–	–
Cc1ccc2/c(=C/c3ccc(N(C)C)cc3)c3cc(-c4ccccc4)[n+](C)n3c2c1	6.58	7.95	0.197	–	1.9	–	–	–	> 44.1	1.57	0.0643	< 0.0199	0.0337	1.06	0.0836	0.0969	–	–	–	–
CN1CCN(C)C1c1cccc(C2N(C)CCN2C)c1	–	–	> 100	> 100	> 100	–	> 100	> 100	> 100	–	–	–	–	–	–	–	–	–	–	–
CC1(C)CCc2cc3c(cc2O1)OCCC3=O	> 100	> 100	> 100	> 100	> 100	> 100	> 100	> 100	> 100	–	–	–	–	–	–	–	–	–	–	–
CC1(C)OC(=O)C=C([O-])O1.CC1(C)OC(=O)C=C([O-])O1.O=c1c(O)c(-c2ccc([O-])cc2[O-])oc2cc(O)cc(O)c12.[Ti+4]	> 100	> 100	–	> 100	73.7	> 100	> 100	93.3	> 100	–	–	–	–	–	–	–	59	36.7	–	–
O=C1c2ccccc2-c2cccc3ccc(Cc4ccccc4)c1c23	–	> 100	> 100	> 100	> 100	> 100	> 100	> 100	> 100	–	–	–	–	–	–	–	–	–	–	–
CC/C=C\C/C=C\C1CC(=O)NCCCNCCCCN1 (stereo not given)	> 100	> 100	> 100	> 100	> 100	> 100	–	70.4	> 100	–	–	–	–	–	–	–	–	–	–	–
CC(=O)OCCOCBr	> 100	> 100	–	> 100	–	> 100	> 100	> 100	–	–	–	–	–	–	–	–	–	–	–	–

Compound	TGI (CAKI-1 renal) [µM]	TGI (EKVX NSCLC) [µM]	TGI (HCC-2998 colon) [µM]	TGI (HL-60(TB) leukemia) [µM]	TGI (NCI-H23 lung) [µM]	TGI (OVCAR-8 ovarian) [µM]	TGI (RPMI-8226 leukemia) [µM]	TGI (RXF 393 renal) [µM]	TGI (SNB-19 CNS) [µM]	GI50 (CAKI-1 renal) [µM]	GI50 (EKVX NSCLC) [µM]	GI50 (HCC-2998 colon) [µM]	GI50 (MDA-MB-231 breast) [µM]	TGI (MDA-MB-231 breast) [µM]	GI50 (NCI-H23 lung) [µM]	GI50 (SNB-19 CNS) [µM]	GI50 (RPMI-8226 leukemia) [µM]	GI50 (RXF 393 renal) [µM]	GI50 (OVCAR-8 ovarian) [µM]	GI50 (HL-60(TB) leukemia) [µM]
CC1=Nc2c(ccc3c2C(=O)c2ccccc2C3=O)NC(c2ccncc2)C1 (stereo not given)	> 100	> 100	> 100	> 100	> 100	> 100	> 100	> 100	> 100	3.77	> 100	> 100	–	–	> 100	> 100	89.9	> 100	> 100	–
O=c1c2ccccc2c2c3c1cccc3c1cccc3c(=O)c4ccccc4c2c31	> 100	> 100	> 100	–	> 100	> 100	–	> 100	> 100	–	–	–	–	–	–	–	–	–	–	–
C=C(COC(C)=O)CC(/C=C(\C)CCC=C(C)C)OC(C)=O (stereo not given)	–	> 100	> 100	> 100	> 100	> 100	–	> 100	> 100	–	–	–	–	–	–	–	–	–	–	–
NS(=O)(=O)c1ccc(NC(=O)c2cccc3c(=O)c4ccccc4[nH]c23)cc1	> 100	> 100	> 100	> 100	> 100	> 100	> 100	–	> 100	–	–	–	–	–	–	–	–	–	–	–
CC(C)(C)C1(O)Cc2ccccc2C(=O)O1 (stereo not given)	> 100	> 100	> 100	> 100	> 100	> 100	–	> 100	> 100	–	–	–	–	–	–	–	–	–	–	–
CCCS(=O)(=O)c1nc(NC2CC2)cc(-c2ccc3c(ccn3C3CC(C)(C)NC(C)(C)C3)c2)n1	3.05	3.71	–	3.73	–	–	5.27	3.44	–	1.56	1.84	–	–	–	–	–	2	1.64	–	1.75
N#Cc1c(N)c(C(=O)O)nn(-c2cccc(C(F)(F)F)c2)c1=O	> 100	> 100	–	> 100	> 100	> 100	> 100	> 100	> 100	–	–	–	–	–	–	–	–	–	–	–
Oc1c2c(c(O)c3ccccc13)=N[C@@H](c1ccccc1)[C@H](c1ccccc1)N=2	> 100	–	> 100	> 100	> 100	> 100	> 100	> 100	> 100	–	–	–	–	–	–	–	–	–	–	–
CCOc1cccc2nc3cccc(C(=O)NCCN(C)C)c3nc12	–	11.6	3.53	–	4.45	> 20.4	6.46	3.21	11.2	–	–	–	–	–	–	–	–	–	–	–
c1ccc2c(c1)N=C(c1cccc3ccccc13)CC(c1cccc3ccccc13)S2 (stereo not given)	13.2	28.7	11.2	3.56	12.5	16.6	4.85	16.5	12.9	–	–	–	–	–	–	–	–	–	–	–
COC(=O)NC/C=C\c1nc(CC/C=C\C(=O)OC2CC3CC(=O)O[C@@H](/C=C/CC(C)C)C[C@@H]4CCC(C)C(C[C@@H](OC)CC(C2)O3)O4)co1 (stereo not given in full)	70.6	> 100	19	–	> 100	> 100	–	–	> 100	< 0.01	< 0.01	< 0.01	4.43	47.6	< 0.01	34.4	–	–	53	–
CN(C)C(=S)/N=c1\ss/c(=N\S(=O)(=O)c2ccccc2)n1-c1ccccc1	> 100	> 100	> 100	> 100	> 100	> 100	> 100	> 100	–	–	–	–	–	–	–	–	–	–	–	–
COc1ccc(C(=O)C(C(=O)CCC(=O)Nc2cccc(C(F)(F)F)c2)c2ccccc2)cc1 (stereo not given)	> 100	> 100	> 100	> 100	> 100	> 100	> 100	–	> 100	–	–	–	–	–	–	–	–	–	–	–
COc1ccc(C2=NC(C)(C)CO2)cc1	> 100	> 100	–	> 100	> 100	> 100	> 100	> 100	> 100	–	–	–	–	–	–	–	–	–	–	–
COc1ccc(-c2cc(-c3cc(Cl)ccc3Cl)nc3nc(=S)[nH]c(N)c23)cc1	62.1	> 100	40.1	–	48.4	–	> 100	–	> 100	10.6	28.5	23.1	3.62	19.8	22.1	58.1	14.3	–	–	–
c1cc[c]([Sn]([S]c2cccc3cccnc23)([c]2ccccc2)[c]2ccccc2)cc1	0.0421	0.37	0.096	–	0.175	0.255	–	–	0.901	0.0114	0.0558	0.0433	–	–	0.0305	0.256	–	–	0.0387	–
